Measured values as given in article PMC6290556, “1,4-Disubstituted Thiosemicarbazide Derivatives are Potent Inhibitors of Toxoplasma gondii Proliferation” (Molecules, 2014).
In brackets after ≈: the same amount, converted by molar mass. One block for each compound: values may come before it.

Key:
[1] = solubility under the anti-T. gondii protocol conditions; type: physicochemical; conditions: anti-T. gondii assay protocol, 1 to 100 µg/mL
Description: In the next step of our studies, the prepared 1,4-disubstituted thiosemicarbazides (series 1–3) were used to assess the inhibition of T. gondii growth in vitro. For this purpose, intracellular parasites (tachyzoites) of RH strain were incubated with different concentrations of the thiosemicarbazides ranging from 1 to 100 µg/mL. Inhibition of the parasite growth was monitored by measuring the specific incorporation of [^3H]uracil in the parasite’s nucleic acids. Unfortunately, among the 15 compounds tested, derivatives 1a–1e, 1k, 1l, 2f, 2i, 2j, and 3h were insoluble under the protocol conditions and, consequently, they were eliminated from further experiments. The percentages of the parasite growth inhibition in L929 cells by the remaining compounds 1g, 2b, 3d, 3l and the control drug-sulfadiazine as well as IC50 values are shown in Table 1.
A preliminary assumption was thus put forward that the presence of both the five-membered hetaryl moiety at N1 position and the aryl moiety at N4 position of thiosemicarbazide core are the key functionalities required for potent anti-T. gondii activity of thiosemicarbazide-based compounds, which may be directly linked with the electronic structure of the molecule. In order to verify the preliminary hypothesis, 4-ethyl-1-(thiophen-2-yl)carbonylthiosemicarbazide (1m), 4-cyclohexyl-1-(thiophen-2-yl)carbonylthiosemicarbazide (1n), and 4-ethyl-1-(2-methylfuran-3-yl)carbonylthio-semicarbazide (2m) were synthesized and their bioactivity was tested. Unfortunately, derivatives 1m and 1n were insoluble under the protocol conditions and, consequently, they were eliminated from further experiments. […] The assumption of the existence of the relationship between the anti-T. gondii activity of the studied thiosemicarbazides and their molecular structure was also confirmed based on DFT calculations. Figure 3 illustrates the electrostatic potential mapped on the density surface using the Gaussview program. Neutral fragments are characterized by the green color of the surface. The negative charge is represented by red, while the positive charge is marked in blue. If compound 1g is excluded from the consideration, the biological activity correlates well with the dipole moment of the molecule. In this series it seems that the activity depends on the bimodal partial negative charge developed on the carbonyl oxygen and another moiety on the same side of the molecule (a sulfur atom in 2b and 3d). Its low value in 3l and lack in 2m may be responsible for the lower activity. […] It contains, however, two partial negative charge centers as the series discussed above and an additional such center on the fluorine atom. Comparison of the biological activity of 1g and 2m seems to indicate the crucial role of the second negative charge density on the top of the molecule on a moiety other than the carbonyl oxygen. Another observation that comes from the analysis of the presented structures is that the biological activity is pronounced when the methyl group of the five-membered ring is directed away from the carbonyl group.

[2] = system: Gram-positive and Gram-negative bacterial strains; assay: antibacterial assay (disc diffusion / agar dilution); type: cell-based; conditions: even at high concentrations
From the text: The following microorganisms were used in this study: Staphylococcus aureus (ATCC 25923, ATCC 6538, ATCC 29213, NCTC 4163), Staphylococcus epidermidis ATCC 12228, Bacillus subtilis ATCC 6633, Bacillus cereus ATCC 11778, Micrococcus luteus (ATCC 9341, ATCC 10240), Escherichia coli (ATCC 10538, ATCC 25922, NCTC 8196), […] NCTC 4635, Pseudomonas aeruginosa (ATCC 15442, ATCC 27853, NCTC 6749), and Bordetella bronchiseptica ATCC 4617. Initially, antibacterial activity of thiosemicarbazide derivatives was screened on the basis of growth inhibition zone (giz) utilizing the disc diffusion method, according to the Clinical and Laboratory Standards Institute guidelines. For compounds showing the inhibitory effect on the growth of tested bacteria, monitored as an appearance of giz, the minimal inhibitory concentrations (MICs) were determined using agar dilution method, according to the Clinical and Laboratory Standards Institute guidelines. The minimal inhibitory concentrations (MICs) were defined as the lowest concentration of the compound preventing growth of the tested microorganism. In both methods, recommended Mueller-Hinton II agar medium (Becton Dickinson, Heidelberg, Germany) was used. Solutions containing the tested agents were prepared in methanol or DMSO. Ciprofloxacin was used as control antimicrobial agent.

T. gondii RH strain = assay: quantitative real-time PCR (B1 gene) of T. gondii in infected L929 cells; type: cell-based, Toxoplasma gondii; conditions: assay B qRT-PCR, L929 host cells
Description: T. gondii genomic DNA was isolated from the tachyzoites of RH strain with Wizard® SV Genomic DNA Purification System (Promega, Madison, WI, USA) according to the manufacturer’s instruction. The DNA concentration and purity were measured using a NanoPhotometer (Implen, München, Germany), while the integrity of the extracted DNA was tested using an ethidium bromide-stained agarose gel. DNA was used for the detection and quantitationof T. gondii in analyzed samples and it was stored at −20 °C until use.
A quantitative real-time PCR (qRT-PCR) assay, targeting B1 gene was performed to detect and to quantitate T. gondii in analyzed samples (1g, 2b, 2m, 3d, 3l and sulphadiazine) according to the modified protocol of Wahab et al.. […] Amplification was carried out on a 7900HT real-time PCR system (Applied Biosystems, Carlsbad, CA, USA). The reaction mixtures (25 µL) consisted of 1x TaqMan PCR master mix supplemented with ROX (Applied Biosystems), 300 nM probe, 900 nM of each primer and 2 µL of template DNA. For quantification a standard curve was constructed using 10-fold serial dilutions of DNA extracted from a known number of T. gondii. The cycling parameters were: 50 °C for 2 min, initial activation at 95 °C for 10 min, and 45 two-step cycles of 95 °C for 15 s and 60 °C for 1 min. All samples were analyzed in triplicate.

[3] = system: T. gondii RH strain tachyzoites; assay: [3H]uracil incorporation assay of T. gondii proliferation in L929 host cells; type: cell-based, Toxoplasma gondii; conditions: assay A [3H]uracil incorporation; for intensity of T. gondii proliferation: vs untreated blank
Description: In the next step of our studies, the prepared 1,4-disubstituted thiosemicarbazides (series 1–3) were used to assess the inhibition of T. gondii growth in vitro. For this purpose, intracellular parasites (tachyzoites) of RH strain were incubated with different concentrations of the thiosemicarbazides ranging from 1 to 100 µg/mL. Inhibition of the parasite growth was monitored by measuring the specific incorporation of [^3H]uracil in the parasite’s nucleic acids.
The tachyzoites of T. gondii strain RH – intraspecies type I (ATCC_ Number 50174™) were maintained through passages on female C57BL/6 (H-2^b) and BALB/c (H-2^d) mice with genetically determined high and low susceptibility (respectively) to T. gondii infection (10–12 weeks old). Tachyzoites washed out from the peritoneum cavity were once expanded in vitro on L929 cells.
L929, (2 × 10^4 cells/100 µL/well) were grown in complete medium (IMDM) on 96-well plates. After 24 h incubation, a medium was removed and then T. gondii RH tachyzoites, suspended in culture medium supplemented with 1.0, 5.0, 10.0, 50.0 and 100.0 μg/mL 1,4-disubstituted thiosemicarbazides (1g, 2b, 2m, 3d, 3l) and as a control-sulfadiazine, were added (2 × 10^5 tachyzoites/200 µL/well) to the cell monolayers. After subsequent 48 h incubation 1 µCi/well of [^3H] uracil (Moravek Biochemicals Inc., Brea, CA, USA) was applied to each microculture for further 18–20 h. The amount of the isotope incorporated into the parasite nucleic acid pool, corresponding to the parasite growth, was measured by liquid scintillation counting with 1450 Microbeta Plus Liquid Scintillation Counter (Wallac Oy, Turku, Finland).

[4] = system: T. gondii RH strain tachyzoites; assay: as above; type: cell-based; conditions: Toxoplasma gondii, L929, read-out: IC50 (50% of T. gondii proliferation inhibition in vitro)
L929 cells = assay: MTT cell viability assay (ISO 10993-5); type: cell-based, mouse; conditions: for CC30 (concentration required for 30% proliferation inhibition in vitro): L929 cells; for viability of L929 cells: 24 h, ± SD
Description: (§1) Cell line L929 (ATTC® Catalog No. […] The MTT assay was used according to international standards: ISO 10993-5:2009(E), Biological evaluation of medical devices, Part 5: Tests for in vitro cytotoxicity. […] Then, 1 mg/mL MTT (50 μL/well) was added to each well and incubated at 37 °C, 10% CO2 for 2 h. Mitochondrial dehydrogenases of viable cells reduced the yellowish water-soluble MTT to water-insoluble formazan crystals, which were solubilized with dimethyl sulfoxide (DMSO). The cell culture medium was aspirated cautiously, after which 150 μL DMSO was added to each well and mixed thoroughly. Optical density (OD) was read on the ELISA reader (Multiskan EX, Labsystems, Vienna, VA, USA) at 550 nm. […] All experiments were performed in triplicate.

[5] = MTT cell viability assay (ISO 10993-5); type: cell-based, mouse; conditions: mouse, L929 mouse fibroblast cells, 24 h, ± SD
Description: as §1

- solubility under the protocol conditions [1]: insoluble
Compound: Cc1occc1C(=O)NNC(=S)Nc1ccc(I)cc1 [Compound 2j]

- solubility under the protocol conditions [1]: insoluble
Compound: O=C(NNC(=S)Nc1ccc(F)cc1F)c1cccs1 [Compound 1l]

- solubility under the protocol conditions [1]: insoluble
Compound: O=C(NNC(=S)Nc1ccc([N+](=O)[O-])cc1)c1cccs1 [Compound 1k]

- melting point: 155 to 157 °C
Compound: Cc1ccccc1NC(=S)NNC(=O)c1cccs1 [Compound 1b, 4-(2-Methylphenyl)-1-(thiophen-2-yl)carbonylthiosemicarbazide]

- melting point: 188 to 190 °C
Compound: Cc1cccc(NC(=S)NNC(=O)c2cccs2)c1 [Compound 1e, 4-(3-Methylphenyl)-1-(thiophen-2-yl)carbonylthiosemicarbazide]

- solubility under the protocol conditions [1]: insoluble
Compound: Cc1occc1C(=O)NNC(=S)Nc1ccc(Br)cc1 [Compound 2i]

- solubility under the protocol conditions [1]: insoluble
Compound: Cc1ccc(NC(=S)NNC(=O)c2ccoc2C)cc1 [Compound 2f]

The next lines start with the compound.

Compound: Cc1nnsc1C(=O)NNC(=S)Nc1ccc(Cl)cc1 [Compound 3h]
- solubility under the protocol conditions [1]: insoluble

Compound: CCN=C(S)NNC(=O)c1cccs1 [Compound 1m, 4-ethyl-1-(thiophen-2-yl)carbonylthiosemicarbazide]
- solubility under the protocol conditions [1]: insoluble

Compound: Cc1ccccc1NC(=S)NNC(=O)c1ccoc1C [Compound 2b]
- growth-inhibiting effect on bacterial strains [2]: no growth-inhibiting effect
- intensity of T. gondii proliferation (T. gondii RH strain; 50 µg/mL): 41.37 ± 9.98 %
- intensity of T. gondii proliferation (T. gondii RH strain; 100 µg/mL): 7.29 ± 1.56 %
- intensity of T. gondii proliferation ([3]; 1 µg/mL): 98.24 ± 23.83%
- intensity of T. gondii proliferation ([3]; 5 µg/mL): 107.95 ± 24.88%
- intensity of T. gondii proliferation ([3]; 10 µg/mL): 112.25 ± 22.91 %
- intensity of T. gondii proliferation ([3]; 50 µg/mL): 58.78 ± 11.49 %
- intensity of T. gondii proliferation ([3]; 100 µg/mL): 8.10 ± 2.78 %
- IC50 [4]: 59 µg/mL (≈ 204 µM)
- CC30 (concentration required for 30% proliferation inhibition in vitro) (L929 cells): 187.51 µg/mL
- viability at 24 h, 1 µg/mL ([5]; 1 µg/mL): 95.3 ± 9.52%
- viability at 24 h, 5 µg/mL ([5]; 5 µg/mL): 94 ± 1.78%
- viability at 24 h, 10 µg/mL ([5]; 10 µg/mL): 91.9 ± 5.21%
- viability at 24 h, 50 µg/mL ([5]; 50 µg/mL): 84.5 ± 1.43%
- viability at 24 h, 100 µg/mL ([5]; 100 µg/mL): 78.2 ± 1.61%
- viability at 24 h, 500 µg/mL ([5]; 500 µg/mL): 30.3 ± 0.86%

Compound: 4-ethyl-1-(2-methylfuran-3-yl)carbonylthio-semicarbazide [Compound 2m]
- growth-inhibiting effect on bacterial strains [2]: no growth-inhibiting effect
- intensity of T. gondii proliferation (T. gondii RH strain; 50 µg/mL): 51.03 ± 7.02 %
- intensity of T. gondii proliferation (T. gondii RH strain; 100 µg/mL): 53.03 ± 9.87 %
- intensity of T. gondii proliferation ([3]; 1 µg/mL): 98.00 ± 19.53%
- intensity of T. gondii proliferation ([3]; 5 µg/mL): 75.74 ± 14.62%
- intensity of T. gondii proliferation ([3]; 10 µg/mL): 60.61 ± 9.56 %
- intensity of T. gondii proliferation ([3]; 50 µg/mL): 66.49 ± 11.38 %
- intensity of T. gondii proliferation ([3]; 100 µg/mL): 57.59 ± 15.02 %
- IC50 (50% of T. gondii proliferation inhibition in vitro) [3]: 191.04 µg/mL
- viability of L929 cells (L929 cells; 1 µg/mL): 104.05 ± 0.12%
- viability of L929 cells (L929 cells; 5 µg/mL): 94.44 ± 2.62%
- viability of L929 cells (L929 cells; 10 µg/mL): 94.05 ± 5.13%
- viability of L929 cells (L929 cells; 50 µg/mL): 90.49 ± 2.99 %
- viability of L929 cells (L929 cells; 100 µg/mL): 92.17 ± 2.31 %
- viability of L929 cells (L929 cells; 500 µg/mL): 80.40 ± 2.74 %
- CC30 (concentration required for 30% proliferation inhibition in vitro) (L929 cells): >500 µg/mL

Compound: O=C(NNC(=S)NC1CCCCC1)c1cccs1 [Compound 1n, 4-cyclohexyl-1-(thiophen-2-yl)carbonylthiosemicarbazide]
- solubility under the protocol conditions [1]: insoluble
